Results as given in US20130090371A1, “METHODS AND COMPOSITIONS FOR INHIBITION OF BETA2-ADRENERGIC RECEPTOR DEGRADATION” (PRESIDENT AND FELLOWS OF HARVARD COLLEGE, priority 2010, published 2013).
d = 2'-deoxy (DNA); r = 2'-OH (RNA)

Tests used:
[1] = test system: β2AR; assay: Immunoblot of exogenously expressed β2AR in 293β2AR cells; type: cell-based, human; conditions: at a higher concentration; three days
Text: Three repeats were done with similar results.

[2] = test system: β2AR; assay: Immunoblot of β2AR protein in human airway smooth muscle (HASM) cells
Method: Error bars represented the standard deviations; Student t-test * p<0.05, n=2. […] Indirect Immunofluorescence staining of β2AR and phase contract images are shown.
Three days after the inhibitor treatment cell lysates were collected and analyzed by immunoblotting. Three repeats were done with similar results.
Immunoblot analysis. 48 h post DNA transfection, cells were wash with PBS and lysed with NP-40 lysing buffer (50 mM Tris-HCl pH7.5, 150 mM NaCl, 0.5% Nonidet P-40) containing protease inhibitor cocktail (Roche). Protein samples were separated on NuPAGE 10% Bis-Tris gels (Invitrogen) and transferred to nitrocellulose membranes (Bio-Rad). Immunoblot signals were developed using SuperSignal West Pico Chemiluminescent Substrate (Pierce, Rockford, Ill., USA) and quantified by a Luminescence Imager or exposed to X-ray films.

[3] = test system: latrophilin 2; assay: Quantitative real-time PCR of latrophilin 2 expression; type: cell-based, human; conditions: vs NT siRNA
Text: FIG. 11A-11C show inhibition of an EST RNA (AA496068) increases latrophilin 2 expression and decreases β2-AR degradation. FIG. 11A show the genomic locus that is targeted by AA496068 EST shRNA (SEQ ID NO: 2). The shRNA corresponds to sequences in an EST AA496068, which is about 150 kb upstream of the latrophilin 2 gene, and binding of this shRNA […] (SEQ ID NO: 2) activates latrophilin 2 and decreases β2-AR degradation. Thus SEQ ID NO: 2 serves as an activator or agonist of lactrophinin 2. The whole region covering the EST and latrophilin 2 is also annotated as KIAA0786. […] Cells were then labeled with anti-FLAG-FITC and analyzed by flow cytometry. FIG. 11B are histograms showing the distribution of cells treated with vehicle (upper panel) or ISO (lower panel) are shown above. […] Total RNA was isolated from cells transfected with NT or AA496068 EST siRNAs. Latrophilin 2 and AA496068 EST expression was determined by reverse transcription using random hexamers followed by quantitative real-time PCR.

[4] = test system: β2AR; assay: qRT-PCR of β2AR mRNA in HASM cells; type: cell-based, human; conditions: AAEST siRNA
[5] = test system: surface β2-AR; assay: Surface β2-AR by FACS (α-Flag FITC) after AAEST siRNA; type: cell-based, human; conditions: text: HASM cells; legend FIG. 16A: HEK293 cells
[6] = test system: β2AR; assay: Baseline β2AR expression in cells after AAEST knockdown; type: cell-based
[7] = molecular target: T1, β2ARt (Homo sapiens, UniProt P07550); assay: Immunoblot of agonist-induced β2AR degradation in 293β2AR* / β2ARt cells; type: cell-based
T1 construct: a distally truncated form (after residue 385) of β2AR (β2ARt); expressed in transfected cells; host or cells: HEK293 (293.β2AR*)
Method: (§1) β2AR ubiquitination and degradation assays. Cells expressing […] or β2ARt were subjected to 10 μM ISO (Sigma) stimulation, lysed in 0.5% NP-40 lysis buffer and immunoblotted with anti-FLAG-HRP (Sigma). For β2AR ubiquitination, β2ARt or wt-β2AR expressing cells were first incubated with 10 μM alprenolol antagonist (Sigma) for 15 min (to reduce constitutive background ubiquitination), stimulated with 10 μM ISO and lysed in buffer supplemented with 10 mM N-ethylmaleimide (NEM; Sigma) to inhibit deubiquitinase activity. Anti-FLAG EZview beads (Sigma) used for the IP were subjected to three 10 min washes with lysis buffer and resuspended in 50 μl 2βLDS sample buffer (Invitrogen) containing 10% β-mercaptoethanol (Sigma) and analyzed by immunoblotting.

[8] = molecular target: T2, wild-type β2AR (Homo sapiens, UniProt P07550); assay: Immunoblot of agonist-induced degradation of wild-type β2AR; type: cell-based; conditions: siRNA-transfected cells
T2 construct: expressed in transfected cells; host or cells: HEK293 (293.β2AR^WT)
Method: β2AR ubiquitination and degradation assays. Cells expressing PAR or β2ARt were subjected to 10 μM ISO (Sigma) stimulation, lysed in 0.5% NP-40 lysis buffer and immunoblotted with anti-FLAG-HRP (Sigma). For β2AR ubiquitination, β2ARt or wt-β2AR expressing cells were first incubated with 10 μM alprenolol antagonist (Sigma) for 15 min (to reduce constitutive background ubiquitination), stimulated with 10 μM ISO and lysed in buffer supplemented with 10 mM N-ethylmaleimide (NEM; Sigma) to inhibit deubiquitinase activity. Anti-FLAG EZview beads (Sigma) used for the IP were subjected to three 10 min washes with lysis buffer and resuspended in 50 μl 2βLDS sample buffer (Invitrogen) containing 10% β-mercaptoethanol (Sigma) and analyzed by immunoblotting.

[9] = molecular target: T1, β2ARt; assay: β2AR ubiquitination assay, β2ARt cells; type: cell-based; conditions: ISO stimulation
Method: as §1

[10] = molecular target: T2, wild-type β2AR; assay: β2AR ubiquitination assay, wild-type β2AR cells; type: cell-based; conditions: ISO stimulation
Method: as §1

[11] = test system: ARRDC3; assay: ARRDC3 protein knockdown by siRNA; type: cell-based, human
[12] = molecular target: T3, NEDD4/β2AR (Homo sapiens, UniProt P07550); assay: IP assay of NEDD4/β2AR association in β2ARt-expressing cells; type: cell-based; conditions: presence or absence of ISO stimulation
T3 construct: a distally truncated form (after residue 385) of β2AR (β2ARt); expressed in transfected cells; host or cells: HEK293 cells stably expressing FLAG-β2ARt
Method: FIGS. 10A-10B show ARRDC3 is an essential adaptor for β2AR ubiquitination. […] Cells stably expressing FLAG-β2ARt were transfected with siRNAs targeting nothing (scrambled), ARRDC3, or β-arrestin-2 and then subjected to a treatment with vehicle or ISO. Anti-FLAG immunoprecipitates from the corresponding lysates and whole cell extracts (WCE) were analyzed by immunoblotting with the indicated antibodies. FIG. 10B is a schematic model of ARRDC3 functioning as an adaptor for β2AR ubiquitination.
Co-immunoprecipitations (co-IP). 293T cells were transfected using Fugene 6 (Roche) or Turbofect (Fermentas). 48 h later, cells were lysed, pre-cleared with protein A agarose, and HA- or FLAG-tagged proteins were IP-ed using anti-HA EZview or anti-FLAG EZview beads. Washed beads were resuspended in sample buffer and analyzed by immunoblotting. Where noted, cross-linking was achieved by incubation for 40 min with 2 mM crosslinker dithio-bismaleimidoethane (DTME; Pierce) in PBS containing 10 mM Hepes (pH 7.5), as previously described (Shenoy et al, 2008) with minor modifications. IP complexes were washed three times consecutively in lysis, high salt, and low salt buffers then resuspended in sample buffer before immunoblotting.

Compound: O=C(O)c1ccc2c3c1cccc3c(=O)n1c3ccccc3nc21 [STO-609]
- β2AR protein level [1]: increased exogenously expressed β2AR protein
- β2AR protein level ([2]; at as low as 2 μM, three days): an increase in β2AR

Compound: AA496068 EST siRNAs: siRNA having the sequence UAAUAUUUAAUGAGGCGGCCU (SEQ ID NO: 27) (listed as RNA, chemistry not given here)
- latrophilin 2 expression [3]: increases the expression of latrophilin 2

Compound: AAEST siRNA: 5′ UAAUAUUUAAUGAGGCGGCCUdTdT (SEQ ID NO: 34) and/or 5′ AGGCCGCCUCAUUAAAUAUUAdTdT (SEQ ID NO: 35) (chain 1 UAAUAUUUAAUGAGGCGGCCUTT; chain 2 AGGCCGCCUCAUUAAAUAUUATT; sugars from the 5' end r21 d2, backbone not given here)
- mRNA expression level of β2-adrenergic receptor [4]: did not decrease the mRNA expression level
- presence of β2-AR on the cell surface [5]: decreases the presence of β2-AR on the surface
- baseline β2AR expression [6]: an increase in baseline β2AR expression
- total β2-AR protein expression ([2]; western blot, FIG. 16B): decreased total β2-AR protein expression

Compound: ARRDC3 siRNA: siRNA having the sequence GAACUGCUCUUCCCGAAUG (SEQ ID NO: 25) (chemistry not given here)
- level of un-degraded receptor after ISO vs scrambled control siRNA ([7]; ISO-induced degradation of β2ARt): about 6 fold
- increase in basal level of the receptor ([7]; prior to ISO stimulation): < 2 fold
- ISO-induced degradation of wild-type β2AR [8]: blocked
- reduction in normalized amount of ubiquitinated β2AR compared to ISO-treated control [9]: −70%
- reduction in ubiquitinated β2AR compared to ISO-treated control [10]: −30%
- knockdown of ARRDC3 protein expression [11]: > 75%
- association of NEDD4 with β2AR [12]: completely abrogated
